Data as given in PubChem BioAssay AID179 (DTP/NCI, 2004).
Active and inactive are the calls of the source.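 The calls were made as follows: active = compounds giving half or more protection of infected cells from virus-caused growth loss, again on retest; inactive = the rest.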

System: CEM cells HIV-1 protection, formazan growth assay
Assay: NCI AIDS Antiviral Assay
Details: for IC50: measured here: growth of uninfected CEM cells
Summary of the method: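 Protection of CEM cells against HIV-1 was scored from cell growth (soluble formazan) across five concentrations, with parallel uninfected cells. Lack of protection may reflect toxicity.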

Compound	EC50 [µM]	IC50 [µM]	outcome
CCOC(=O)C(=O)C1C(=O)Nc2ccccc21 (stereo not drawn)	> 398	204	
CCOC(=O)C1=NN(c2ccccc2)C(=O)/C1=C/N1C(=O)/C(=C/c2ccc([N+](=O)[O-])cc2)SC1=S	> 200	23.4	
CS(=O)(=O)c1nc2nc[nH]c2c(=O)[nH]1	> 200	> 200	
C=C1CN2CCc3c([nH]c4ccccc34)C2CC1CC(=O)N(C)C (stereo not drawn)	> 562	468	
CCOc1ccc(N2CC(=O)N3CCCCN3C(=O)C2)cc1	> 200	> 200	
CNC(=O)Nc1ccncc1	> 200	> 200	
COc1cc(C(=O)C/C(CCC(=O)Nc2ccccc2[N+](=O)[O-])=N\NC(=O)CC#N)ccc1O	> 537	224	
COc1cccc(NC(=O)CC(=O)N2N=C(C)C(N=Nc3ccc(S(=O)(=O)c4ccc(N=NC5C(=O)N(C(=O)CC(=O)Nc6cccc(OC)c6)N=C5C)cc4)cc3)C2=O)c1 (stereo not drawn)	178	> 200	
CN(C)N=Nc1cccc(C(N)=O)c1	> 646	145	
SC1N=C(c2ccccc2)N2C(S)N=C(c3ccccc3)N12 (stereo not drawn)	> 200	83.2	
CC1=C(C(=O)Nc2ccccc2C)C(c2ccc(C3C(C(=O)Nc4ccccc4C)=C(C)NC(C)=C3C(=O)Nc3ccccc3C)cc2)C(C(=O)Nc2ccccc2C)=C(C)N1			inactive
O=[N+]([O-])c1ccc(-c2ccc(/C=N/n3c(-c4ccc(Cl)cc4)n[nH]c3=S)o2)cc1	> 1.23	> 1.23	
O=c1oc2c3ccc4ccccc4c3n(CCCN3CCCCC3)c2c2ccccc12	> 16.2	7.76	
Fc1ccc(N2C(=S)SC(=Nc3ccccc3)C2=Nc2ccccc2)cc1	> 200	23.4	
CC(=O)C1=C(O)CC2CC3c4[nH]c5ccccc5c4CCN3CC2C1 (stereo not drawn)	> 204	102	
N#Cc1nn(C(N)=O)c(N)c1C#N	> 200	> 200	
CC(C)(C)N=C1C(=O)C2(C)CCC1C2(C)C (stereo not drawn)	> 20	> 20	

Compound	EC50 [µM]	IC50 [µM]	outcome
O=C1NC(N/N=C\c2ccccc2)=N/C1=C/c1ccccc1	> 200	35.5	
O=C(c1nc2ccc([N+](=O)[O-])cc2[nH]c1=O)C(O)c1ccc([N+](=O)[O-])cc1 (stereo not drawn)	58.9	110	
O=CN1CCN(C=S)CC1	> 1580	> 1580	
CCCCCCCCCCCCCCCC[N+](C)(C)Cc1ccc(C[N+](C)(C)CCCCCCCCCCCCCCCC)cc1			inactive
CCOC(=O)c1ccc(CS(=O)(=O)c2ccc([N+](=O)[O-])cc2)c([N+](=O)[O-])c1	> 91.2	60.3	
CC(C)(C)OC(=O)C1=C2C=C(O)C=CC2(C)N(Cc2ccccc2)C1=N (stereo not drawn)	> 2	0.741	
COc1ccc2nc3n(c2c1)C(c1c(Cl)cccc1Cl)SC3 (stereo not drawn)	> 200	> 200	
Nc1ncnc2c1ncn2C1C(O)C(CO)C1CO (stereo not drawn)	> 186	> 186	
Cc1c([N+](=O)[O-])oc2c1C(=O)NCCC2	> 437	70.8	
CCCCCN(CCCCC)c1ccc(/C=C/c2ccnc3ccccc23)cc1	> 67.6	> 67.6	
O=C(CCN1CCCCC1CO)Nc1ccc2c(c1)C(=O)c1ccc(NC(=O)CCN3CCCCC3CO)cc1C2=O (stereo not drawn)	> 200	3.16	
[Co].[NH-]CC[NH-].[NH-]CC[NH-].[NH-]CC[NH-]	> 200	> 200	
O=C1CCOc2cc(ccc2O)CCN1	> 200	> 200	
COc1cc2ccc1NC(=O)N1CCN(CC1)C(=O)Nc1ccc(cc1OC)-c1ccc(c(OC)c1)NC(=O)N1CCN(CC1)C(=O)Nc1ccc-2cc1OC	> 0.933	> 0.933	
CC(C)C(=O)Oc1cc2c(=O)oc3c(OC(=O)C(C)C)c(OC(=O)C(C)C)cc4c(=O)oc(c1OC(=O)C(C)C)c2c34	> 50.1	> 50.1	
O=S(=O)(OCCCCOS(=O)(=O)c1ccc(Cl)c(Cl)c1)c1ccc(Cl)c(Cl)c1			inactive
